Test results: patent publication US9023789B2, “Amylin analogs and pharmaceutical compositions thereof” (Novo Nordisk A/S, priority 2012, dated 2015)
Each block holds one compound with its values, some of them ahead of it. Numbered stars: 1 amine (or outer) side, 2 acyl side, 3 side chain; on linkers, the order of the positions; unused ones are H or OH. Bridge positions count the residues as written; N and C are the ends. Side chains are listed from the residue outwards. Peptide text beside a SMILES is read from it. * marks the point of attachment. C20 diacid = O=C(O)CCCCCCCCCCCCCCCCCCC(=O)*; γGlu = O=C(O)[C@H](CCC(=O)[*:2])N[*:1]

Legend:
Male Sprague-Dawley rats = assay: ASSAY (XI) single subcutaneous administration, food intake monitored for 48 hours in rats; assay type: in vivo, rat; conditions: 30 nmol/kg; for Food intake red (%) 0-24 h / Food intake red (%) 24-48 h: single s.c., compared to vehicle
Text: Assay (XI)—Effect from Single Subcutaneous Administration of Analogue on Plasma Calcium in Rats
Male Sprague-Dawley rats (Taconic Europe, ˜250 g at test date) were acclimatized to reversed day light cycle (lights on from 10 PM to 10 AM) and single housing in online food intake monitoring system (Ellegaard MBRose, Denmark) prior to study start. […] Data are illustrated in graphs as mean±SEM.

Male Wistar rats = assay: ASSAY (XII) effect from single subcutaneous administration on plasma calcium in rats; assay type: in vivo, rat; conditions: for Plasma calcium red (%) 0-12 h (maximal): single s.c., 30 nmol/kg, compared to vehicle; for suppression of plasma calcium level relative to vehicle: single subcutaneous 30 nmol/kg, monitored over 24 hours
Procedure: Assay (XII)—Effect from Single Subcutaneous Administration of Analogue on Plasma Calcium in Rats
Male Wistar rats (Taconic Europe, ˜250 g at test date) were acclimatized to handling prior to the study. Rats were divided in groups of five and subcutaneously dosed with test compound at time=0. At time T=−15 min; 1 h, 2 h, 4 h, 7 h, 12 h, and 24 h a blood sample was obtained and heparin stabilized plasma was analysed for total calcium (Cobas, Hitachi). Data are illustrated in graphs as mean±SEM.

[1] = biological target: T1, human calcitonin receptor (Homo sapiens, UniProt P30988); assay: ASSAY (VII) binding to the human calcitonin receptor (SPA, 125I-Calcitonin); conditions: read-out: hCTR bind IC50;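 also: cell membranes (35 ng/µL) combined with SPA beads in 40 µL of pH 7.4 Hepes buffer, 384-well format, signal counted on a TopCounter instrument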
T1 construct: expressed in transfected cells
T1 sequence (P30988 25-474): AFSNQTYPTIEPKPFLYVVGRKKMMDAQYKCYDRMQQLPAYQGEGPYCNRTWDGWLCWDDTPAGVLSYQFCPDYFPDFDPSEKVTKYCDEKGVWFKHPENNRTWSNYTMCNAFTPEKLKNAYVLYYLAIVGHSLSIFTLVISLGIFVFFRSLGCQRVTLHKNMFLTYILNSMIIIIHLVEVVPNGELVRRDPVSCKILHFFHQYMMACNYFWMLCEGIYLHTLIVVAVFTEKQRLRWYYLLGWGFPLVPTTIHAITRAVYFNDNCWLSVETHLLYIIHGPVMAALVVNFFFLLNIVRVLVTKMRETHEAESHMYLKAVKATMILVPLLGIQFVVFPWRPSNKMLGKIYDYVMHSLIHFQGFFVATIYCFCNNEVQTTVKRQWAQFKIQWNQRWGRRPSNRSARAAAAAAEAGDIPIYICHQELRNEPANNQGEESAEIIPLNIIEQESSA

SMILES: CC[C@H](C)[C@H](NC(=O)[C@H](C)NC(=O)CNC(=O)[C@H](Cc1ccccc1)NC(=O)[C@H](CC(N)=O)NC(=O)[C@@H]1CCCN1C(=O)[C@H](CO)NC(=O)[C@H](CO)NC(=O)[C@H](Cc1c[nH]cn1)NC(=O)[C@H](CCCNC(=N)N)NC(=O)[C@H](CC(C)C)NC(=O)[C@H](Cc1ccccc1)NC(=O)[C@H](CCC(=O)O)NC(=O)[C@H](C)NC(=O)[C@H](CC(C)C)NC(=O)[C@H](CCCNC(=N)N)NC(=O)[C@H](CCC(N)=O)NC(=O)[C@@H](NC(=O)[C@H](C)NC(=O)[C@@H]1CSSC[C@H](NC(=O)[C@@H](N)CCCCNC(=O)CC[C@H](NC(=O)CCCCCCCCCCCCCCCCCCC(=O)O)C(=O)O)C(=O)N[C@@H](CC(N)=O)C(=O)N[C@@H]([C@@H](C)O)C(=O)N[C@@H](C)C(=O)N[C@@H]([C@@H](C)O)C(=O)N1)[C@@H](C)O)C(=O)N1CCC[C@H]1C(=O)N[C@@H](CO)C(=O)N[C@@H](CO)C(=O)N[C@H](C(=O)N[C@@H](CC(N)=O)C(=O)N[C@H](C(=O)NCC(=O)N1CCC[C@H]1C(=O)N[C@@H](CCCNC(=N)N)C(=O)N[C@H](C(=O)N[C@@H](Cc1ccc(O)cc1)C(N)=O)[C@@H](C)O)C(C)C)[C@@H](C)O [Example 117] (H-K([γGlu-C20 diacid])CNTATCATQRLAEFLRHSSPNFGAIPSSTNVGPRTY-NH2; disulfide 2-7; N-terminus assumed)
Food intake red (%) 0-24 h (Male Sprague-Dawley rats): 61% | Food intake red (%) 24-48 h (Male Sprague-Dawley rats): 4% | food intake monitored over 48 hours (Male Sprague-Dawley rats; single subcutaneous administration, versus vehicle): reduces food intake | Plasma calcium red (%) 0-12 h (maximal) (Male Wistar rats): 9% | suppression of plasma calcium level relative to vehicle (Male Wistar rats): None of the example compounds at 30 nmol/kg trigger a notable suppression of the calcium level

SMILES: CC[C@H](C)[C@H](NC(=O)[C@H](C)NC(=O)CNC(=O)[C@H](Cc1ccccc1)NC(=O)[C@H](CC(N)=O)NC(=O)[C@@H]1CCCN1C(=O)[C@H](CO)NC(=O)[C@H](CO)NC(=O)[C@H](Cc1c[nH]cn1)NC(=O)[C@H](CCCNC(=N)N)NC(=O)[C@H](CC(C)C)NC(=O)[C@H](Cc1ccccc1)NC(=O)[C@H](CC(N)=O)NC(=O)[C@H](C)NC(=O)[C@H](CC(C)C)NC(=O)[C@H](CCCNC(=N)N)NC(=O)[C@H](CCC(N)=O)NC(=O)[C@@H](NC(=O)[C@H](C)NC(=O)[C@@H]1CSSC[C@H](NC(=O)[C@@H](N)CCCCNC(=O)CC[C@H](NC(=O)CC[C@H](NC(=O)CCCCCCCCCCCCCCCCCCC(=O)O)C(=O)O)C(=O)O)C(=O)N[C@@H](CC(N)=O)C(=O)N[C@@H]([C@@H](C)O)C(=O)N[C@@H](C)C(=O)N[C@@H]([C@@H](C)O)C(=O)N1)[C@@H](C)O)C(=O)N1CCC[C@H]1C(=O)N[C@@H](CO)C(=O)N[C@@H](CO)C(=O)N[C@H](C(=O)N1CCC[C@H]1C(=O)N[C@H](C(=O)NCC(=O)N1CCC[C@H]1C(=O)N[C@@H](CCCNC(=N)N)C(=O)N[C@H](C(=O)N[C@@H](Cc1ccc(O)cc1)C(N)=O)[C@@H](C)O)C(C)C)[C@@H](C)O [Example 119] (H-K([γGlu-γGlu-C20 diacid])CNTATCATQRLANFLRHSSPNFGAIPSSTPVGPRTY-NH2; disulfide 2-7)
IC50 [1]: 42.8 nM

SMILES: CC[C@H](C)[C@H](NC(=O)[C@H](C)NC(=O)CNC(=O)[C@H](Cc1ccccc1)NC(=O)[C@H](CC(N)=O)NC(=O)[C@@H]1CCCN1C(=O)[C@H](CO)NC(=O)[C@H](CO)NC(=O)[C@H](Cc1c[nH]cn1)NC(=O)[C@H](CCCNC(=N)N)NC(=O)[C@H](CC(C)C)NC(=O)[C@H](Cc1ccccc1)NC(=O)[C@H](CO)NC(=O)[C@H](C)NC(=O)[C@H](CC(C)C)NC(=O)[C@H](CCCNC(=N)N)NC(=O)[C@H](CCC(N)=O)NC(=O)[C@@H](NC(=O)[C@H](C)NC(=O)[C@@H]1CSSC[C@H](NC(=O)[C@@H](N)CCCCNC(=O)CC[C@H](NC(=O)CC[C@H](NC(=O)CCCCCCCCCCCCCCCCCCC(=O)O)C(=O)O)C(=O)O)C(=O)N[C@@H](CC(N)=O)C(=O)N[C@@H]([C@@H](C)O)C(=O)N[C@@H](C)C(=O)N[C@@H]([C@@H](C)O)C(=O)N1)[C@@H](C)O)C(=O)N1CCC[C@H]1C(=O)N[C@@H](CO)C(=O)N[C@@H](CO)C(=O)N[C@H](C(=O)N[C@@H](CC(N)=O)C(=O)N[C@H](C(=O)NCC(=O)N1CCC[C@H]1C(=O)N[C@@H](CCC(=O)O)C(=O)N[C@H](C(=O)N[C@@H](Cc1ccc(O)cc1)C(N)=O)[C@@H](C)O)C(C)C)[C@@H](C)O [Example 120] (H-K([γGlu-γGlu-C20 diacid])CNTATCATQRLASFLRHSSPNFGAIPSSTNVGPETY-NH2; disulfide 2-7 (inferred); N-terminus assumed)
IC50 [1]: 3.44 nM

More lines, main results first:

Plasma calcium red (%) 0-12 h (maximal) (Male Wistar rats): 10%
SMILES: CC[C@H](C)[C@H](NC(=O)[C@H](C)NC(=O)CNC(=O)[C@H](Cc1ccccc1)NC(=O)[C@H](CC(N)=O)NC(=O)[C@@H]1CCCN1C(=O)[C@H](CO)NC(=O)[C@H](CO)NC(=O)[C@H](Cc1c[nH]cn1)NC(=O)[C@H](CCCNC(=N)N)NC(=O)[C@H](CC(C)C)NC(=O)[C@H](Cc1ccccc1)NC(=O)[C@H](CCC(=O)O)NC(=O)[C@H](C)NC(=O)[C@H](CC(C)C)NC(=O)[C@H](CCCNC(=N)N)NC(=O)[C@H](CCC(N)=O)NC(=O)[C@@H](NC(=O)[C@H](C)NC(=O)[C@@H]1CSSC[C@H](NC(=O)[C@@H](N)CCCCNC(=O)CC[C@H](NC(=O)CCCCCCCCCCCCCCCCCCC(=O)O)C(=O)O)C(=O)N[C@@H](CC(N)=O)C(=O)N[C@@H]([C@@H](C)O)C(=O)N[C@@H](C)C(=O)N[C@@H]([C@@H](C)O)C(=O)N1)[C@@H](C)O)C(=O)N1CCC[C@H]1C(=O)N[C@@H](CO)C(=O)N[C@@H](CO)C(=O)N[C@H](C(=O)N[C@@H](CC(N)=O)C(=O)N[C@H](C(=O)NCC(=O)N[C@@H](CO)C(=O)N[C@@H](CCCNC(=N)N)C(=O)N[C@H](C(=O)N[C@@H](Cc1ccc(O)cc1)C(N)=O)[C@@H](C)O)C(C)C)[C@@H](C)O [Example 51] (H-K([γGlu-C20 diacid])CNTATCATQRLAEFLRHSSPNFGAIPSSTNVGSRTY-NH2; disulfide 2-7 (inferred); N-terminus assumed)
Food intake red (%) 0-24 h (Male Sprague-Dawley rats): 52% | Food intake red (%) 24-48 h (Male Sprague-Dawley rats): 30% | suppression of plasma calcium level relative to vehicle (Male Wistar rats): None of the example compounds at 30 nmol/kg trigger a notable suppression of the calcium level

IC50 [1]: 3.27 nM
SMILES: CC[C@H](C)[C@H](NC(=O)[C@H](C)NC(=O)CNC(=O)[C@H](Cc1ccccc1)NC(=O)[C@H](CC(N)=O)NC(=O)[C@@H]1CCCN1C(=O)[C@H](CO)NC(=O)[C@H](CO)NC(=O)[C@H](Cc1c[nH]cn1)NC(=O)[C@H](CCCNC(=N)N)NC(=O)[C@H](CC(C)C)NC(=O)[C@H](Cc1ccccc1)NC(=O)[C@H](CC(=O)O)NC(=O)[C@H](C)NC(=O)[C@H](CC(C)C)NC(=O)[C@H](CCCNC(=N)N)NC(=O)[C@H](CCC(N)=O)NC(=O)[C@@H](NC(=O)[C@H](C)NC(=O)[C@@H]1CSSC[C@H](NC(=O)[C@@H](N)CCCCNC(=O)CC[C@H](NC(=O)CCCCCCCCCCCCCCCCCCC(=O)O)C(=O)O)C(=O)N[C@@H](CC(N)=O)C(=O)N[C@@H]([C@@H](C)O)C(=O)N[C@@H](C)C(=O)N[C@@H]([C@@H](C)O)C(=O)N1)[C@@H](C)O)C(=O)N1CCC[C@H]1C(=O)N[C@@H](CO)C(=O)N[C@@H](CO)C(=O)N[C@H](C(=O)N[C@@H](CC(N)=O)C(=O)N[C@H](C(=O)NCC(=O)N1CCC[C@H]1C(=O)N[C@@H](CCC(=O)O)C(=O)N[C@H](C(=O)N[C@@H](Cc1ccc(O)cc1)C(N)=O)[C@@H](C)O)C(C)C)[C@@H](C)O [Example 123] (H-K([γGlu-C20 diacid])CNTATCATQRLADFLRHSSPNFGAIPSSTNVGPETY-NH2; disulfide 2-7; N-terminus assumed)

IC50 [1]: 42.5 nM
SMILES: CC[C@H](C)[C@H](NC(=O)[C@H](C)NC(=O)CNC(=O)[C@H](Cc1ccccc1)NC(=O)[C@H](CC(N)=O)NC(=O)[C@@H]1CCCN1C(=O)[C@H](CO)NC(=O)[C@H](CO)NC(=O)[C@H](Cc1c[nH]cn1)NC(=O)[C@H](CCCNC(=N)N)NC(=O)[C@H](CC(C)C)NC(=O)[C@H](Cc1ccccc1)NC(=O)[C@H](CC(=O)O)NC(=O)[C@H](C)NC(=O)[C@H](CC(C)C)NC(=O)[C@H](CCCNC(=N)N)NC(=O)[C@H](CCC(N)=O)NC(=O)[C@@H](NC(=O)[C@H](C)NC(=O)[C@@H]1CSSC[C@H](NC(=O)[C@@H](N)CCCCNC(=O)CC[C@H](NC(=O)CCCCCCCCCCCCCCCCCCC(=O)O)C(=O)O)C(=O)N[C@@H](CC(N)=O)C(=O)N[C@@H]([C@@H](C)O)C(=O)N[C@@H](C)C(=O)N[C@@H]([C@@H](C)O)C(=O)N1)[C@@H](C)O)C(=O)N1CCC[C@H]1C(=O)N[C@@H](CO)C(=O)N[C@@H](CO)C(=O)N[C@H](C(=O)N[C@@H](CC(N)=O)C(=O)N[C@H](C(=O)NCC(=O)N1CCC[C@H]1C(=O)N[C@@H](CCCNC(=N)N)C(=O)N[C@H](C(=O)N[C@@H](Cc1ccc(O)cc1)C(N)=O)[C@@H](C)O)C(C)C)[C@@H](C)O [Example 129] (H-K([γGlu-C20 diacid])CNTATCATQRLADFLRHSSPNFGAIPSSTNVGPRTY-NH2; disulfide 2-7 (inferred); N-terminus assumed)
